The values below come from US6593273B2, “Method for reducing pest damage to corn by treating transgenic corn seeds with pesticide” (priority 2000, dated 2003).

The assay concerns western and northern corn rootworm. Briefly: Field trial (Example 3): corn rootworm damage by Iowa class, percent of control and synergy threshold. The assay is classed as in vivo. On the procedure: The determination of damage by corn rootworm was made according to the following protocol. At stage V4-V6, an evaluation of early stand was made by counting the number of plants per acre. At stage VT-R1, an evaluation of corn rootworm damage was carried out by methods that are well known in the industry, and damage by corn rootworm was reported according to the Iowa 1-6 rating system. In that system, the root systems of 10 corn plants per plot are recovered and scored using the 1-6 rating scale, where: 1=no injury or only a few minor feeding scars, 2=feeding injury evident, but no roots eaten back to 1½ inches of the plant, 3=at least one root eaten off to within 1½ inches of the plant, but never an entire node of roots destroyed, 4=one node of roots eaten back to within 1½ inches of the plant, 5=two nodes (circles) of roots eaten back to within 1½ inches of the plant, 6=three nodes (circles) of roots eaten back to within 1½ inches of the plant.
A field trial was run in accordance with pertinent protocols and in conformance with USDA notification requirements. The purpose of the trial was to determine the efficacy of transgenic event Cry3Bb.11231 in corn seed in combination with corn rootworm seed treatments using imidacloprid.
For each growing site that was selected, the plot design included the following:
The following seed treatment combinations were used for each growing area:
All seed treatments with pesticides were carried out as described in Example 1. In seed treatment number 1 and 2, Gaucho® was used for wire worm protection, but at levels sufficiently low that it would be expected to have no effect on corn rootworms (i.e., at a treatment level of about 60 gm of active/100 kg seed or 0.16 mg active/kernel), otherwise, seed receiving treatment number 2 had only transgenic event Cry3Bb.11231 and no pesticide treatment that would be expected to be effective against corn rootworm.
For seeds having treatments numbered 3 through 5, the pesticides were applied by the methods described in Example 1. For seeds having treatment numbers 6 and 7, commercially available Force® 3G and Lorsban® 15G were applied to the soil in a 5″ band at the time of sowing. The levels of application are as shown and are within the ranges recommended for standard commercial practice.
Corn seeds to be tested were planted and grown at four different locations across several Midwestern states in the United States corn belt according to the protocol described above.
The determination of damage by corn root worm was made according to the protocol described in Example 2.
The combination of imidacloprid seed treatment with corn seed having a Cry3Bb.11231 transgenic event was tested for possible synergy at a level of rootworm damage of 3-6. In the first test, shown in Table 2(A), the percentage of test plants having damage levels of from 3 to 6, on the Iowa 1-6 Scale, was determined for the control and for seeds treated with the pesticide at two levels, and for seeds having the transgenic event, alone and in combination. The following formula was then used to calculate a “synergy threshold”:
(% of control Cry3Bb.11231)*(% of control imidacloprid treatment)/100.
This threshold was compared against the percent of control for the treatment combination (i.e., Cry3Bb.11231 with imidacloprid @ 400 gm/100 kg). If the treatment combination percent of control was below the threshold, then it was concluded that there was synergy.
It was believed that the measurement of rootworm damage at higher damage levels (i.e., levels 3-6) is a useful indicator that correlates with subsequent yield loss due to such damage. The reason for this is that rootworm damage at levels 1 and 2 seldom causes corn plants to fall over and lodge, and such minimal root loss is not believed to reduce the number or weight of kernels per ear. However, root damage at levels of 3 and above increasingly causes lodging and loss of yield. […]

For the molecule `O=[N+]([O-])NC1=NCCN1Cc1ccc(Cl)nc1` [Imidacloprid, 1-[(6-chloro-3-pyridinyl)methol]-N-nitro-2-imidazolidinimime], the “PERCENT OF CONTROL” value was found to be 80.5% (Table 2(A), plants with damage levels 3-6 relative to isohybrid control, imidacloprid @ 400 g/100 kg of seed) and 80.5% (Table 2(B), damage levels 3-6 relative to untreated control, imidacloprid @ 400 gm/100 kg). Moreover, the “NUMBER OF PLANTS HAVING 3-6 DAMAGE LEVEL” value (Table 2(B), Iowa 1-6 Scale levels 3-6, imidacloprid @ 400 gm/100 kg) is 71.7. For the setting “imidacloprid at 400 gm/100 kg of seed”, the “protection against corn rootworm damage (in words)” value is recorded as “effective against corn rootworm damage”. Moreover, the “CORN ROOTWORM DAMAGE IN EACH IOWA CLASS (IOWA 1-6 SCALE): 1” value (plants in Iowa class 1, imidacloprid @ 400 g/100 kg of seed, FORCE and LORSBAN as surface band at planting) was 3. Further, the “CORN ROOTWORM DAMAGE IN EACH IOWA CLASS (IOWA 1-6 SCALE): 2” value (plants in Iowa class 2, imidacloprid @ 400 g/100 kg of seed, FORCE and LORSBAN as surface band at planting) came to 15. The “CORN ROOTWORM DAMAGE IN EACH IOWA CLASS (IOWA 1-6 SCALE): 3” value (plants in Iowa class 3, imidacloprid @ 400 g/100 kg of seed, FORCE and LORSBAN as surface band at planting) was 36. Moreover, under “plants in Iowa class 4, imidacloprid @ 400 g/100 kg of seed, FORCE and LORSBAN as surface band at planting”, the “CORN ROOTWORM DAMAGE IN EACH IOWA CLASS (IOWA 1-6 SCALE): 4” value is given as 21. For the same molecule, the “CORN ROOTWORM DAMAGE IN EACH IOWA CLASS (IOWA 1-6 SCALE): 5” value (plants in Iowa class 5, imidacloprid @ 400 g/100 kg of seed, FORCE and LORSBAN as surface band at planting) amounted to 5. Moreover, the “CORN ROOTWORM DAMAGE IN EACH IOWA CLASS (IOWA 1-6 SCALE): 6” value (plants in Iowa class 6, imidacloprid @ 400 g/100 kg of seed, FORCE and LORSBAN as surface band at planting) stood at 0.
